The source of these data is paper PMC9227536, “Prediction of Pharmacokinetics of IDP-73152 in Humans Using Physiologically-Based Pharmacokinetics” (Pharmaceutics, 2022).

By fraction unbound is commonly meant free concentration divided by total concentration. Usually logP stands for a log measure of how a compound divides between an organic and an aqueous phase. Low readings indicate a more hydrophilic compound, high ones a more lipophilic compound. One may read the pKa as the negative logarithm of the acid dissociation constant. High values mean a group that holds its proton tightly, low ones a group that gives up its proton readily.

Data set [1] is described as follows: Biliary and renal excretion in bile duct-cannulated rats. Type of data set: in vivo. Particulars: intravenous 5 mg/kg, up to 8 h. The procedure: Male Sprague Dawley rats (Orient Bio Inc., Seongnam, Korea), weighing 194.7 g to 205.4 g, were used in this study. IDP-73152 was administered to rats at a single dose of 2.5, 5, or 10 mg/kg via tail vein injection (the injection volume fixed at 2 mL/kg in saline). […] Blood samples (100 μL) were collected from the jugular vein at 0.167, 0.33, 0.5, 1, 2, 4, and 8 h after the administration. Plasma was separated/collected by centrifugation of the blood samples for 5 min at 10,000× g/4 °C and stored at −80 °C until analysis. When necessary, the biliary and renal excretion of IDP-73152 were studied in bile duct-cannulated rats after the intravenous injection (5 mg/kg) to investigate its route(s) of excretion in rats. Bile and urine samples were collected up to 8 h (i.e., approximately 5 times of the terminal phase half-life) after the administration and the samples were stored at −80 °C until the analysis. The cumulative excretion of the bile and the urine to infinite time was determined by assuming that the excretion was practically completed by the last collection time.

A further data set is described as follows: in vitro. Type of data set: in vitro ADME. Particulars: microsomes. The procedure:
The unbound fractions of IDP-73152 in various matrices were measured according to the manufacturer’s instructions for the rapid equilibrium dialysis (RED) device (ThermoFisher Scientific, Waltham, MA, USA). Briefly, IDP-73152 was added to the plasma or the microsomal/hepatocyte incubation buffer from various species (i.e., mouse, rat, dog, and human for microsomal incubation; rat for hepatocyte incubation) to obtain final concentrations of the compound at 0.3, 1, and 3 μM. After the membrane insert was placed in the RED plate, the solution containing IDP-73152 was added (400 µL) to the sample chamber, and the dialysis buffer (600 μL) was added to the buffer chamber. The RED plate was sealed with parafilm and then incubated at 37 °C in the orbital shaker (Lab Companion, Daejeon, Korea) at 100 rpm for 5 h. After a 50 μL aliquot was aspirated from both the sample and buffer chambers, an equal volume of protein-free buffer or blank medium was replaced in the aspirated sample or buffer to render the matrices compositionally identical. The IDP-73152 concentration in the buffer/sample chambers (i.e., CBuffer Chamber and CSample Chamber) was determined by an assay. Thus, the fraction unbound was defined as:(2) % Fraction unbound=(CBuffer Chamber/CSample Chamber)×100%

The nature of data set [2]: Physicochemical properties (Table S3).
Another data set deals with the bacterial strains. Briefly: In vitro minimum inhibitory concentration, preliminary screening. Type of data set: cell-based. Particulars: preliminary screening study, against the bacterial strains.
The nature of data set [3]: Metabolic stability in liver microsomes, dog. Type of data set: in vitro ADME. The procedure: In this study, the metabolic stability of IDP-73152 in microsomes from mice, rats, dogs, and humans, as well as rat hepatocytes, was determined. For a microsomal incubation study, the incubation mixtures, containing mouse, rat, dog, or human liver microsomes at a protein concentration of 0.5 mg/mL, 3.3 mM MgCl2, and 1.3 mM NADPH, in a 100 mM potassium phosphate buffer (pH 7.4), were preincubated for 3 min at 37 °C. In parallel, a control incubation mixture (i.e., identical composition to that of the incubation mixture without NADPH) was also prepared for comparison. The reaction was initiated by the addition of a 10 × solution of IDP-73152 (final concentration in mixtures of 1 μM) to the incubation mixtures or the control incubation mixtures. The mixtures were incubated in a shaking water bath (37 °C, 90 rpm). Aliquots (30 μL) were collected at 0, 15, 30, and 45 min from the mixture and the reaction was terminated by the addition of a 4-fold volume of ice-cold acetonitrile to the sample. The mixture was then vortexed for 5 min and centrifuged for 10 min at 10,000× g. The supernatant was collected and stored at -80 °C until the analysis. For the hepatocyte incubation study, rat hepatocytes were freshly prepared using the two-step collagenase perfusion method with slight modifications. After the isolation, cell viability during the preparation process was first determined by a trypan blue exclusion assay prior to the stability study. The preparation was considered adequate for subsequent studies if the viability was greater than 80%. When appropriate, the hepatocytes were resuspended in Williams' media E containing 10% fetal bovine serum, 1% penicillin-streptomycin, and 0.01% insulin-transferrin-selenium (i.e., 10 mg/mL insulin, 5.5 mg/mL transferrin, and 5 mg/mL selenium) at pH 7.4. The reaction was carried out with the hepatocyte suspension prepared at 1 × 10^6 cells/mL (0.5 mL) and initiated by the addition of equal volume of IDP-73152 solution (i.e., final concentration of the compound at 1 μM in 0.5 × 10^6 cells/mL of hepatocytes) to the hepatocyte suspension. […] Assuming first-order disappearance kinetics, the slope k of the logarithmically transformed IDP-73152 concentration in the sample versus time plot was determined by the linear regression analysis of the data. The total intrinsic clearance (CLint,mic, μL/min/mg protein for microsomal incubation study and CLint,hep, μL/min/million cells for hepatocytes incubation study) was then calculated using the following equations:(4) CLint, mic=k×Volume of incubation medium (μL)/Protein in incubation medium (mg) (5) CLint,hep=k×Volume of incubation (μL)/Number of cells in incubation (×10^6) The unbound intrinsic clearance, with respect to the whole liver ([…]), was then estimated for the two cases. […]

In the case of `CC(C)(C)[C@H](NC(=O)[C@H](CC1CCCC1)CN(O)C=O)C(=O)N1CCC(NCc2cc(F)c(F)cc2F)CC1` [IDP-73152], in data set [1], the “biliary recovery of intact drug” value is listed as 0.512 ± 0.154 % of the dose. Besides, the “urinary recovery of intact drug” value in data set [1] is 1.21 ± 0.48 % of the dose. Besides, the fraction unbound at 5 h is 0.507 ± 0.04 in “in vitro” (dog), 0.579 ± 0.006 in the data set “in vitro” (human), 0.571 ± 0.023 in the data set “in vitro” (mouse) and 0.439 ± 0.043 in “in vitro” (rat). This compound also returned a logP in data set [2] of -0.52. For the same compound, in data set [2], the pKa came out at 8.8. The “in vitro minimum inhibitory concentration values” in the data set with the bacterial strains was “comparable to, or less than, those of linezolid and vancomycin”. Moreover, in data set [3] (dog, liver microsomes, pH 7.4, dogs, read-out: CLh calculated from the CLint,mic (converted)), the CLhep predicted at 1 μM is 8.87 mL/min/kg. Further, the microsomal CLint at 1 μM in data set [3] (dog, pH 7.4, dogs liver microsomes 0.5 mg/mL, 1 μM, read-out: CLint,mic) amounted to 62.6 ± 2.4 µL/min/mg. Further, in data set [3] (dogs, from microsomal clearance, well-stirred model), the “hepatic ER (extraction ratio)” value came out at 0.106 ± 0.004. For the same compound, in data set [3] (dogs, scaled up to the whole liver from microsomes), the “CLu,int,H” value is 108 ± 4 L/h.
